Measurements: US20250197368A1 (priority 2020, published 2025)

Experiments:
human α3β3γ2 GABAARs = assay: In vitro electrophysiological recording assay (automated patch-clamp), α3-GABAAR relative efficacy; type: cell-based; settings: % efficacy normalised to diazepam; GABA EC10-20; concentration generally >= 100 times Ki
Description: The efficacy of modulators was evaluated using the automated patch-clamp platforms QPatch16 (Sophion, Copenhagen, Denmark) or SyncroPatch 384PE (Nanion, Germany).
For QPatch electrophysiology testing L(tk^−) cells stably expressing human α1β3γ2, α2β3γ2, α3β3γ2, α5β3γ2 GABAARs were used. HEK293 cells stably expressing human α1β3γ2L, α2β3γ2L, α3β3γ2L and α5β3γ2L GABAARs were used for the SyncroPatch 384PE experiments.
All experiments were carried out at room temperature (20-22° C.) using a standard whole cell procedure and physiological solutions. Gigaseals were formed upon execution of a combined suction/voltage protocol with subsequent increased suction leading to the whole-cell configuration.
The currents recorded were acquired at either 1 KHz or 2 KHz and filtered using a Bessel filter. Whole-cell currents were measured at a holding potential of-65 mV (QPatch) or −80 mV (SyncroPatch).
For QPatch experiments, the extracellular solution contained of: 145 mM NaCl, 4 mM KCl, 1 mM MgCl2, 2 mM CaCl2), 10 mM HEPES, 10 mM D-glucose (pH 7.4), and the intracellular solution consisted of: 96 mM KCl, 28 mM CsCl, 25 mM KOH, 4.3 mM CaCl2), 1.4 mM MgCl2, 10 mM EGTA, 10 mM HEPES, 3 mM MgATP (pH 7.2). The osmolarities of the extracellular and intracellular solutions were 305 and 295 mOsm respectively.
For SyncroPatch experiments, the extracellular recording solution contained: 140 mM NaCl, 4 mM KCl, 2 mM CaCl2), 1 mM MgCl2, 10 mM HEPES, 5 mM glucose (pH 7.4 with NaOH and osmolarity of c. 300-310 mOsm). The intracellular recording solution consisted of: 90 mM KCl, 50 mM KF, 1.5 mM MgCl2, 11.1 mM EGTA and 10 mM HEPES (pH 7.2 with KOH and osmolarity of c. 300 mOsm). 2 mM of NaATP was added to the intracellular solution on the day of testing.
The effects of modulators were evaluated in the presence of a submaximal GABA concentration, giving typically less than 30% activation of the response elicited by a saturating GABA concentration. To check and ensure baseline current stability before compound addition, two to five consecutive applications of GABA EC10-20 separated by wash steps were performed before compound addition. The test compound was applied 1 min at least prior to co-application with GABA EC10-20. Following a further wash step, a saturating concentration of GABA was applied at the end of each recording, allowing the accurate evaluation for each cell of the percentage baseline activation elicited by the submaximal GABA applied.
The compounds were first dissolved in DMSO as a 10 mM stock and then further diluted to the testing concentrations so that the final DMSO concentration in the extracellular recording solution was 0.1% (QPatch) or 0.2% (SyncroPatch).
The % efficacy of modulators was determined from the GABA elicited currents recorded in the presence and absence of the test compound, using the formula:
[((compound peak current−leak)−(GABA peak current-leak))/(GABA peak current−leak)]*100,
where ‘leak’ is the leak baseline current at the holding potential, ‘compound peak current’ is the current elicited by co-application of compound and GABA, and ‘GABA peak current’ is the current elicited by GABA alone at the last GABA application before compound addition. The results were presented as ‘relative efficacy’ for each compound generally at a concentration equal or higher than 100 times their determined Ki. The relative efficacy of a compound was calculated by normalising its % efficacy to the corresponding % efficacy of diazepam that was separately determined.

human α2β3γ2 GABAARs = assay: In vitro electrophysiological recording assay (automated patch-clamp), α2-GABAAR relative efficacy; type: cell-based; settings: % efficacy normalised to diazepam; GABA EC10-20; concentration generally >= 100 times Ki
In short: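 Relative efficacy is % enhancement of the leak-subtracted GABA EC10-20 peak current, divided by the separately measured diazepam value; compound generally tested at ≥100× Ki after ≥1 min pre-application. Recordings at room temperature, human receptors stably expressed in L(tk^−) (QPatch, −65 mV) or HEK293 (SyncroPatch, −80 mV) cells.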

[1] = target: human α3β3γ2 GABAARs (benzodiazepine site) (Homo sapiens (Human), UniProt P18507+P34903); assay: In vitro radioligand binding assay ([3H]Ro15-1788 displacement), α3-GABAAR Ki; settings: L(tk-) cell membranes, 4 nM [3H]Ro15-1788
Description: The affinity (Ki) of compounds for the benzodiazepine site of human recombinant GABAARs was measured by their ability to inhibit the binding of the selective benzodiazepine antagonist [^3H]Ro15-1788 ([^3H] flumazenil).
Mouse L(tk^−) cells stably expressing human α1β3γ2, α2β3γ2, α3β3γ2, α5β3γ2 GABAARs were generated by transfection of the individual subunits in the dexamethasone-inducible expression vector pMSGneo in mouse L(tk^−) cells (Hadingham et al., 1993, Mol. Pharmacol. 43:970-975 and 1993, Mol. Pharmacol. 44:1211-1218).
L(tk^−) cells stably expressing human α1β3γ2, α2β3γ2, α3β3γ2, α5β3γ2 GABAARs were maintained in DMEM F12 medium supplemented with 10% Foetal Bovine Serum, 1% Penicillin/Streptomycin and 1 mg/mL Geneticin G418 in an incubator at 37° C. with a humidified atmosphere with 5% CO2. Dexamethasone was added to the culture medium to induce GABAAR expression.
L(tk−) cells were harvested and membranes were prepared for each receptor combination in either TE buffer (10 mM Tris·CI/0.1 mM EDTA, pH 7.5) or phosphate buffer (K2PO4 10 mM, pH 7.0) (Hadingham et al. (1992) Proc. Natl. Acad. Sci. USA; 89 (14): 6378-82). Protein concentration, receptor expression and the Kd of [^3H]Ro15-1788 were determined before Ki value of the compounds were evaluated. For Kd evaluation, saturation binding curves were obtained by incubating membrane with various concentrations of [^3H]Ro15-1788 (82.5 Ci/mM), with nonspecific binding measured in the presence of 1-3 μM TP003.
For Ki evaluation, cell membranes were incubated with 4 nM [^3H]Ro15-1788 along with a range of concentrations of test compound. Nonspecific binding was determined using 1-3 μM TP003. All incubations were performed for 1 hour at 4° C. in assay buffer. The total assay volume was 0.5 mL, containing 40 μg/well α1β3γ2, 30 μg/well α2β3γ2, 40 μg/well α3β3γ2 and 30 μg/well for α5β3γ2 of membrane protein. Incubations were terminated by filtration and washing with ice cold Tris-HCl buffer (50 mM, pH=7.4) over Whatman GF/B filters and the radioactivity of the filters was measured using liquid scintillation counting.
The % inhibition of [^3H]Ro15-1788 binding was plotted as a function of compound concentration and the IC50 calculated. From the IC50, the affinity (Ki) was calculated using the method of Cheng and Prusoff using the Kd values obtained for [^3H]Ro15-1788.

[2] = target: human α2β3γ2 GABAARs (benzodiazepine site) (Homo sapiens (Human), UniProt P18507+P47869); assay: In vitro radioligand binding assay ([3H]Ro15-1788 displacement), α2-GABAAR Ki
In short: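 Ki derived via Cheng-Prusoff from IC50 for displacement of 4 nM [3H]Ro15-1788 (Kd from saturation binding), with 1-3 μM TP003 defining nonspecific binding. Incubation lasted 1 h at 4° C on membranes of induced L(tk−) cells stably transfected with the human subunits; detection by filtration and scintillation counting.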

Sequence of human α2β3γ2 GABAARs (benzodiazepine site) (P47869 29-451): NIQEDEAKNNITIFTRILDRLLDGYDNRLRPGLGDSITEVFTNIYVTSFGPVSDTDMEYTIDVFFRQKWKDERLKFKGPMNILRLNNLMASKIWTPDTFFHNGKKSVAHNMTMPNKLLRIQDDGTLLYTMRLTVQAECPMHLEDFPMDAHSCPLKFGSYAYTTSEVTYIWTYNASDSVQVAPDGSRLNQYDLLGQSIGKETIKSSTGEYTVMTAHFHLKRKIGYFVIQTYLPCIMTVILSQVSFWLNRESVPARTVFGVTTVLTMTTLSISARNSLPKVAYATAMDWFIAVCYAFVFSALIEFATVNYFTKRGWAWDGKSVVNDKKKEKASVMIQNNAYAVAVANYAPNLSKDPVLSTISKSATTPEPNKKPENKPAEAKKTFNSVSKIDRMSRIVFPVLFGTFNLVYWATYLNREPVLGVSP
Sequence of human α2β3γ2 GABAARs (benzodiazepine site) (P28472 26-473 partner): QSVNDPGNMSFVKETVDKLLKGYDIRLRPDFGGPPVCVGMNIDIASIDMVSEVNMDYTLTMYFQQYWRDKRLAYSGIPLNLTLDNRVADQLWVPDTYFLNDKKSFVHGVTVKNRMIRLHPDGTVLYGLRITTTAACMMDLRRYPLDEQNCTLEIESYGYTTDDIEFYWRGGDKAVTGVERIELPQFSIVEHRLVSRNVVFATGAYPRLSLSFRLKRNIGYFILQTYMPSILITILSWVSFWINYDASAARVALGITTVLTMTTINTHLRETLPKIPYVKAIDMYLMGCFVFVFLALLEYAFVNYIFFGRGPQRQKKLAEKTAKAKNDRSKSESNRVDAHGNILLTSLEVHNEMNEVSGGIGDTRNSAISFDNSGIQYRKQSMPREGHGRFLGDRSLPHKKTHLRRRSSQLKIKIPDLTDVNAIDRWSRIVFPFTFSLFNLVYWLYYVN
Sequence of human α2β3γ2 GABAARs (benzodiazepine site) (P18507 40-475): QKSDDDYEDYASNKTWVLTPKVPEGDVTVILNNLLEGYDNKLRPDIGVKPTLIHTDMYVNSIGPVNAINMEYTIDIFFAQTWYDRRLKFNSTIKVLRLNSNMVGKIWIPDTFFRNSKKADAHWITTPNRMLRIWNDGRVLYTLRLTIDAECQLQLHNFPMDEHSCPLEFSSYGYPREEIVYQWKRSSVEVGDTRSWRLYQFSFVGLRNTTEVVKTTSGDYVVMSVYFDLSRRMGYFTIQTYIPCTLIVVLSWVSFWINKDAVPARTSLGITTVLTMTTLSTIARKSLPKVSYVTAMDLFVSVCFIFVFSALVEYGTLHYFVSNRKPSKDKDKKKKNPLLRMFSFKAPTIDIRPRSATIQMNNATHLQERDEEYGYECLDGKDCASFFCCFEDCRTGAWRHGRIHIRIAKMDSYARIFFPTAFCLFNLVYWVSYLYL

SMILES: [2H]C([2H])([2H])C([2H])([2H])C([2H])([2H])NC(=O)c1c(N)c2cccc(-c3cnccc3OC)c2[nH]c1=O [Example 62, 4-Amino-8-(4-methoxypyridin-3-yl)-2-oxo-N-(propyl-d7)-1,2-dihydroquinoline-3-carboxamide]
- α3-GABAAR Relative Efficacy (vs. Diazepam) (human α3β3γ2 GABAARs): 0.44
- α2-GABAAR Relative Efficacy (vs. Diazepam) (human α2β3γ2 GABAARs): 0.28
- Ki [1]: 5.41 nM
- Ki [2]: 6.85 nM

SMILES: CCCNC(=O)c1c(N)c2cccc(-c3nc(OC)ncc3F)c2[nH]c1=O [Example 42, 4-Amino-8-(5-fluoro-2-methoxy-pyrimidin-4-yl)-2-oxo-N-propyl-1H-quinoline-3-carboxamide]
- α3-GABAAR Relative Efficacy (vs. Diazepam) (human α3β3γ2 GABAARs): 0.21
- α2-GABAAR Relative Efficacy (vs. Diazepam) (human α2β3γ2 GABAARs): 0.25
- Ki [1]: 0.64 nM
- Ki [2]: 0.56 nM

SMILES: CCCNC(=O)c1c(N)c2cccc(-c3nc(C)[nH]c3C)c2[nH]c1=O [Example 52, 4-Amino-8-(2,5-dimethyl-1H-imidazol-4-yl)-2-oxo-N-propyl-1H-quinoline-3-carboxamide]
- α3-GABAAR Relative Efficacy (vs. Diazepam) (human α3β3γ2 GABAARs): 0.41
- α2-GABAAR Relative Efficacy (vs. Diazepam) (human α2β3γ2 GABAARs): 0.53
- Ki [2]: 6.61 nM

SMILES: CCCNC(=O)c1c(N)c2cccc(-c3nc(C)ccc3F)c2[nH]c1=O [Example 7, 4-Amino-8-(3-fluoro-6-methyl-2-pyridyl)-2-oxo-N-propyl-1H-quinoline-3-carboxamide]
- α3-GABAAR Relative Efficacy (vs. Diazepam) (human α3β3γ2 GABAARs): 0.43
- α2-GABAAR Relative Efficacy (vs. Diazepam) (human α2β3γ2 GABAARs): 0.16
- Ki [1]: 1.17 nM
- Ki [2]: 0.59 nM

SMILES: CCCNC(=O)c1c(N)c2cccc(-c3cncc(CO)c3)c2[nH]c1=O [Example 25, 4-Amino-8-[5-(hydroxymethyl)-3-pyridyl]-2-oxo-N-propyl-1H-quinoline-3-carboxamide]
- α3-GABAAR Relative Efficacy (vs. Diazepam) (human α3β3γ2 GABAARs): 0.10
- α2-GABAAR Relative Efficacy (vs. Diazepam) (human α2β3γ2 GABAARs): 0.15
- Ki [2]: 3.4 nM

SMILES: CCCNC(=O)c1c(N)c2cccc(-c3cc(OCc4cccc(C)n4)ccc3F)c2[nH]c1=O [Example 88, 4-Amino-8-[2-fluoro-5-[(6-methyl-2-pyridyl)methoxy]phenyl]-2-oxo-N-propyl-1H-quinoline-3-carboxamide]
- α2-GABAAR Relative Efficacy (vs. Diazepam) (human α2β3γ2 GABAARs): 0.26
- Ki [1]: 1.37 nM
- Ki [2]: 1.97 nM

SMILES: CCCNC(=O)c1c(N)c2cccc(-c3cc(CN4CCC5(CC4)CN(C)C5)ccc3F)c2[nH]c1=O [Example 144, 4-Amino-8-(2-fluoro-5-((2-methyl-2,7-diazaspiro[3.5]nonan-7-yl)methyl)phenyl)-2-oxo-N-propyl-1,2-dihydroquinoline-3-carboxamide]
- α2-GABAAR Relative Efficacy (vs. Diazepam) (human α2β3γ2 GABAARs): 0.41
- Ki [1]: 5.43 nM
- Ki [2]: 1.99 nM

SMILES: CCCNC(=O)c1c(N)c2cccc(-c3cc(OCc4cocn4)ccc3F)c2[nH]c1=O [Example 121, 4-Amino-8-[2-fluoro-5-(oxazol-4-ylmethoxy)phenyl]-2-oxo-N-propyl-1H-quinoline-3-carboxamide]
- α2-GABAAR Relative Efficacy (vs. Diazepam) (human α2β3γ2 GABAARs): 0.35
- Ki [1]: 0.61 nM
- Ki [2]: 0.3 nM

SMILES: CCCNC(=O)c1c(N)c2cccc(-c3nc(OC)ccc3F)c2[nH]c1=O [Example 8, 4-Amino-8-(3-fluoro-6-methoxypyridin-2-yl)-2-oxo-N-propyl-1,2-dihydroquinoline-3-carboxamide]
- α2-GABAAR Relative Efficacy (vs. Diazepam) (human α2β3γ2 GABAARs): 0.24
- Ki [1]: 0.19 nM
- Ki [2]: 0.38 nM

SMILES: CCCNC(=O)c1c(N)c2cccc(-c3cccc4c3OC(F)(F)O4)c2[nH]c1=O [Example 51, 4-Amino-8-(2,2-difluoro-1,3-benzodioxol-4-yl)-2-oxo-N-propyl-1H-quinoline-3-carboxamide]
- α2-GABAAR Relative Efficacy (vs. Diazepam) (human α2β3γ2 GABAARs): 0.31
- Ki [1]: 1.63 nM
- Ki [2]: 1.71 nM

SMILES: CCCNC(=O)c1c(N)c2cccc(-c3cccc(OC(F)F)n3)c2[nH]c1=O [Example 2, 4-Amino-8-(6-(difluoromethoxy)pyridin-2-yl)-2-oxo-N-propyl-1,2-dihydroquinoline-3-carboxamide]
- α2-GABAAR Relative Efficacy (vs. Diazepam) (human α2β3γ2 GABAARs): 0.34
- Ki [1]: 1.59 nM
- Ki [2]: 3.33 nM

SMILES: CCCNC(=O)c1c(N)c2cccc(-c3nc(C(F)(F)F)ccc3C)c2[nH]c1=O [Example 13, 4-Amino-8-[3-methyl-6-(trifluoromethyl)-2-pyridyl]-2-oxo-N-propyl-1H-quinoline-3-carboxamide]
- α2-GABAAR Relative Efficacy (vs. Diazepam) (human α2β3γ2 GABAARs): 0.34
- Ki [1]: 7.6 nM
- Ki [2]: 6.05 nM

SMILES: CCCNC(=O)c1c(N)c2cccc(-c3ccnn3C)c2[nH]c1=O [Example 53, 4-Amino-8-(2-methylpyrazol-3-yl)-2-oxo-N-propyl-1H-quinoline-3-carboxamide]
- α2-GABAAR Relative Efficacy (vs. Diazepam) (human α2β3γ2 GABAARs): 0.17
- Ki [1]: 18.4 nM
- Ki [2]: 8.05 nM

SMILES: CCCNC(=O)c1c(N)c2cccc(-c3cc(OCc4csc(C)n4)ccc3F)c2[nH]c1=O [Example 120, 4-Amino-8-(2-fluoro-5-((2-methylthiazol-4-yl)methoxy)phenyl)-2-oxo-N-propyl-1,2-dihydroquinoline-3-carboxamide]
- α2-GABAAR Relative Efficacy (vs. Diazepam) (human α2β3γ2 GABAARs): 0.21
- Ki [1]: 1.18 nM
- Ki [2]: 1.19 nM
